Results on 25 compounds are retold here after patent EP3539977B1, “ENZYMES WITH CHLOROGENIC ACID ESTERASE ACTIVITY AND FERULOYL ESTERASE ACTIVITY” (SternEnzym GmbH & Co. KG, priority 2014, dated 2016).

The structures appear in SMILES notation. Values joined by “and” are separate entries in the source; they are usually repeats but may differ in a detail not shown here. Equal values may be shown once. Read-outs that look alike come from different tables or passages of the source.

Experiment [1] has as its target T1, UmChlE (Mycosarcoma maydis, UniProt A0A060S684, P492L).
T1 construct: purification of the chlorogenic acid esterase UmChlE from culture supernatant of U. maydis was accomplished by three complementary separation steps; made in house; host or cells: Ustilago maydis itself (native producer), culture supernatant; Q Sepharose FF, preparative IEF, polyamide column
Nature of the experiment: biochemical. In kind it is biochemical, Ustilago maydis. The following applies: for Relative esterase activity: 1 h, 37 °C, 50 mM Tris pH 7.5. How it is done:
(§1) Chlorogenic acid esterase activity was determined at 37 °C in 50 mM Tris buffer at pH 7.5 using chlorogenic acid and methyl ferulate as standard substrates, unless otherwise stated. The release of the corresponding free acids was analyzed with HPLC-UV. If appropriate, the hydrolysis of other benzoic and cinnamic acid ester derivatives as well as feruloylated saccharides was measured with the same method. After incubation for one hour the reaction was terminated by doubling the reacting volume with acetonitrile. Samples were centrifuged (15 min, 15.000 × g) before injection to the HPLC (Chromolith Performance RP-18e reverse-phase column, 100 × 4.6 mm, Merck, Darmstadt, Germany). […] Substance elution was detected at 232 nm (benzoic and 3-hydroxybenzoic acid), 254 nm (4-hydroxybenzoic and vanillic acid), 275 nm (cinnamic and gallic acid), 306 nm (p-coumaric acid) and 323 nm (ferulic, caffeic, chlorogenic and sinapic acid) using a Shimadzu UV-Vis detector (SPD-10A VP, Shimadzu Deutschland GmbH, Duisburg, Germany). One unit of enzyme activity was defined as the amount of enzyme releasing one µmοl of free acid per minute under the specified conditions. All measurements were performed at least twice.
Enzyme tolerance to different solvents was investigated in the presence of 50 % (v/v) acetone, acetonitrile, diethyl ether, DMF, DMSO, ethanol, isoamyl alcohol, isobutyl alcohol, isopropanol, methanol, n-hexane, n-heptane, tert-butyl methyl ether or toluene, respectively, in 50 mM Tris buffer pH 7.5 containing 0.7 mM substrate. In an additional experiment, 0.84 mM substrate was used. After incubation (60 min, 37 °C, 900 rpm) the mixture was applied for HPLC analysis as described above. […] The effect of high salt concentrations (0.1 - 3 M NaCl) on enzyme activity was investigated, too.
Various metal ions and enzyme inhibitors were examined for their effect on chlorogenic acid esterase activity (Table 2). […] Hg^2+ reacts with thiol groups and can also reduce disulphide bonds (40). […] Table 2 Effect of metal ions, inhibitors and NaCl on UmChIE activity.
Remaining enzyme activity was measured after 1 h incubation with 1mM, or, in a further experiment, 1.95 mM methyl ferulate and different metal ions as well as inhibitors in concentrations listed above (at 37 °C, 50 mM Tris buffer pH 7.5). Numbers in parentheses are the estimates of the standard error. A sample without additive was used for the calculation of relative enzyme activities. ND: activity not detectable.

Experiment [2] concerns the target T1, UmChlE. In kind it is biochemical, Ustilago maydis. The following applies: 1 mM (or 1.95 mM) substrate, 1 h, 37 °C, 50 mM Tris pH 7.5, ND = activity not detectable; for Relative esterase activity: chlorogenic acid = 100 %, standard error in parentheses. Here is the method: as §1
Substrate specificity of the UmChlE was determined towards different cinnamate and benzoate esters as well as natural substrates, such as F-A, F-AX and F-AXG, with activity assays as described above. Three mM stock solutions of all substrates were prepared in water.
Purified UmChlE was incubated with 1 mM, or, in a further experiment, 1.95 mM of different substrates for 1 h (at 37 °C, 50 mM Tris buffer pH 7.5). Relative enzyme activities were calculated based on the most preferred substance of the UmChIE: chlorogenic acid which was set to 100 %. Numbers in parentheses are the estimates of the standard error.

The target in experiment [3] is T2, RsChlE (Rhizoctonia solani, UniProt A0A1D0BQV8).
T2 sequence (A0A1D0BQV8 39-563): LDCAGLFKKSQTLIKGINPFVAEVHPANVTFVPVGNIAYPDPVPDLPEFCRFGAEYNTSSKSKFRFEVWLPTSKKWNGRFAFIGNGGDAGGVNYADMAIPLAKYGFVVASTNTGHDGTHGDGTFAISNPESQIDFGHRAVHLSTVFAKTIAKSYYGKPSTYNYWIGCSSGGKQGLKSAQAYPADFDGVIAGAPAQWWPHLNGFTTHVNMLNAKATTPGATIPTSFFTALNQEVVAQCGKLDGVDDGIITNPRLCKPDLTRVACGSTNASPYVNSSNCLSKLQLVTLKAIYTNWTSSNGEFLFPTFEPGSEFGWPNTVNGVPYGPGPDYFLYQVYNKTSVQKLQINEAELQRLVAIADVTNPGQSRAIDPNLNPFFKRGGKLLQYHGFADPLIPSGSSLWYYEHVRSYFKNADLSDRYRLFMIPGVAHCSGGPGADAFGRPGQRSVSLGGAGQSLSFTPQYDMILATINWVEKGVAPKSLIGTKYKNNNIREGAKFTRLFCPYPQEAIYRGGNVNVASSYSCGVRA
Nature of the experiment: Substrate specificity of purified RsChlE. In kind it is biochemical. The following applies: 1 mM (or 1.95 mM) substrate, 1 h, 30 °C, 50 mM Bis-Tris pH 6.0. How it is done:
as §1
After purification of the recombinant RsChlE from the culture supernatant of Pichia pastoris with Ni-NTA, the enzyme was biochemically characterized. The experiments were performed like for UmChlE. pH and temperature optimums were analyzed. […] Table 4: Substrate specificity of purified RsChIE.
Purified RsChlE was incubated with 1 mM, or in an alternative experiment, 1.95 mM of different substrates for 1 h (at 30 °C, 50 mM Bis-Tris buffer pH 6.0). […] Numbers in parentheses are the estimates of the standard error.

Setting [4] is: 5 mM additive, 1 mM (or 1.95 mM) methyl ferulate, without additive = 100 %, standard error in parentheses, ND = activity not detectable.

T1 sequence (A0A060S684 22-585, stated change not applied): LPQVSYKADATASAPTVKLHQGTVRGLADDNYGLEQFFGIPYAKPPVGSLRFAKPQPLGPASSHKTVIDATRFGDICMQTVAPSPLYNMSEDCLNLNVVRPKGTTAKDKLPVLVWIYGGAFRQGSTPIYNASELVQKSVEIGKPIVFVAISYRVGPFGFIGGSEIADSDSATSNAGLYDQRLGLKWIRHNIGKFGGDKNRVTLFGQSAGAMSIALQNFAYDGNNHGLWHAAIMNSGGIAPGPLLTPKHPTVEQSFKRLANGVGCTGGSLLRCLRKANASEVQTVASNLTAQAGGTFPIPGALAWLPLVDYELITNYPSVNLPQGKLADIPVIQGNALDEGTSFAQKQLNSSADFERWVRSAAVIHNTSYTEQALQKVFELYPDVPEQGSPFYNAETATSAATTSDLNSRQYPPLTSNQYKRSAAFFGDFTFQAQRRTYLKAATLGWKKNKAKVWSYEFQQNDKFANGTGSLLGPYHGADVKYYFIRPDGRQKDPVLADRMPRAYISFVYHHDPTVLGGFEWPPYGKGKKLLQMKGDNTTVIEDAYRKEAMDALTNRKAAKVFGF

With `O=S(=O)([O-])[O-].O=S(=O)([O-])[O-].O=S(=O)([O-])[O-].[Al+3].[Al+3]` [Al2(SO4)3], the Relative esterase activity in experiment [1] (setting [4]) is 53 (0.12) %; in experiment [1] (5 mM additive, 1 mM (or 1.95 mM) methyl ferulate, without additive = 100 %, standard error in parentheses, ND = activity not detectable, listed as Al^3+), 50 - 76%.

On to `[Ca+2].[Cl-].[Cl-]` [CaCl2], for which the Relative esterase activity in experiment [1] (setting [4]) was 103 (2.76) %.

`[Cl-].[Cl-].[Co+2]` [CoCl2]: the Relative esterase activity in experiment [1] (setting [4]) is reported as 67 (0.11) %; in experiment [1] (5 mM additive, 1 mM (or 1.95 mM) methyl ferulate, without additive = 100 %, standard error in parentheses, ND = activity not detectable, listed as Co^2+), 50 - 76%. With `O=[N+]([O-])[O-].O=[N+]([O-])[O-].O=[N+]([O-])[O-].[Cr+3]` [Cr(NO3)3], the Relative esterase activity in experiment [1] (setting [4]) is 69 (3.54) %; in experiment [1] (5 mM additive, 1 mM (or 1.95 mM) methyl ferulate, without additive = 100 %, standard error in parentheses, ND = activity not detectable, listed as Cr^3+), 50 - 76%. As for `[Cl-].[Cs+]` [CsCl], the Relative esterase activity in experiment [1] (setting [4]) is 105 (1.21) %.

For `O=[N+]([O-])[O-].O=[N+]([O-])[O-].[Cu+2]` [Cu(NO3)2], in experiment [1] (setting [4]), the Relative esterase activity was 96 (0.53) %.

On to `COc1cc(/C=C/C(=O)OC[C@@H]2OC(O)[C@H](O)[C@H]2O)ccc1O` (stereo partly drawn) [F-A, 5-O-trans-feruloyl-L-arabinofuranose], for which the Specific esterase activity in experiment [2] is 2.0 U mg^-1 and 2.06 U mg^-1. In experiment [3], this compound displayed a Specific activity of 4.48 U/mg. In the case of `COc1cc(/C=C/C(=O)OC[C@@H]2OC(O)[C@H](O[C@@H]3OC[C@@H](O)[C@H](O)[C@H]3O[C@@H]3O[C@@H](CO)[C@@H](O)[C@@H](O)[C@@H]3O)[C@H]2O)ccc1O` (stereo partly drawn) [F-AXG, α-L-galactopyranosyl-(1→2)-β-D-xylopyranosyl-(1→2)-5-O-trans-feruloyl-L-arabinofuranose], the Specific esterase activity in experiment [2] is 0.9 U mg^-1 and 0.92 U mg^-1. In experiment [3], the Specific activity was determined as 3.66 U/mg. Turning to `[Cl][Fe]([Cl])[Cl]` [FeCl3], the Relative esterase activity in experiment [1] (setting [4]) is reported as 66 (0.65) %. On to `O=S(=O)([O-])[O-].[Fe+2]` [FeSO4], for which the Relative esterase activity in experiment [1] (setting [4]) is reported as 102 (0.50) %. For the compound `CC(=O)[O-].CC(=O)[O-].[Hg+2]` [HgAc2], in experiment [1] (setting [4]), the Relative esterase activity entry is on record as “complete loss of enzyme activity”. On to `[Cl-].[K+]` [KCI], for which, in experiment [1] (setting [4]), the Relative esterase activity is given as 108 (0.57) %.

For the compound `[Cl-].[Li+]` [LiCI], the Relative esterase activity in experiment [1] (setting [4]) is given as 106 (1.39) %.

With `[Cl-].[Cl-].[Mg+2]` [MgCl2], the Relative esterase activity in experiment [1] (setting [4]) is listed as 106 (0. 53) %. For the compound `O=S(=O)([O-])[O-].[Mn+2]` [MnSO4], the Relative esterase activity in experiment [1] (setting [4]) was 90 (0.09) %; in experiment [1] (5 mM additive, 1 mM (or 1.95 mM) methyl ferulate, without additive = 100 %, standard error in parentheses, ND = activity not detectable, listed as Mn^2+) it was 90%. As to `[Cl-].[Na+]` [NaCl], the Relative esterase activity was 105 (0.02) % in experiment [1] (100 mM additive, methyl ferulate); 121 (0.01) % in experiment [1] (500 mM additive, methyl ferulate); 125 (0.02) % in experiment [1] (1000 mM additive, methyl ferulate); 142 (0.06) % in experiment [1] (2000 mM additive, methyl ferulate); 150% and 150 (0.04) % in experiment [1] (3000 mM (3 M) additive, methyl ferulate). Take `O=S(=O)([O-])[O-].[Ni+2]` [NiSO4]: the Relative esterase activity in experiment [1] (setting [4]) was 108 (0.87) %.

`CCCCCCCCCCCCOS(=O)(=O)O` [SDS]: in experiment [1] (read-out: enzyme activity was inhibited), the inhibition at 5000 µM came to 41%. For `O=[N+]([O-])[O-].O=[N+]([O-])[O-].[Sr+2]` [SrNO3], the Relative esterase activity in experiment [1] (setting [4]) is listed as 104 (0,18) %. Turning to `O=S(=O)([O-])[O-].[Zn+2]` [ZnSO4], the Relative esterase activity in experiment [1] (setting [4]) is 76 (1.26) %; in experiment [1] (5 mM additive, 1 mM (or 1.95 mM) methyl ferulate, without additive = 100 %, standard error in parentheses, ND = activity not detectable, listed as Zn^2+), 50 - 76%. In turn, `CCOC(=O)C=Cc1ccccc1` [ethyl cinnamate] registered a Specific activity in experiment [3] of 0.91 U/mg.

`CCOC(=O)/C=C/c1ccc(O)c(OC)c1` [ethyl ferulate] came in with a Specific esterase activity in experiment [2] of 0.78 U mg^-1. The compound further returned a Specific activity in experiment [3] of 3.60 U/mg. On to `COC(=O)/C=C/c1ccc(O)c(O)c1` [methyl caffeate], for which, in experiment [2], the Specific esterase activity is 0.49 U mg^-1. The compound further registered a Specific activity in experiment [3] of 4.61 U/mg.

In experiment [3], `COC(=O)C=Cc1ccccc1` [methyl cinnamate] yielded a Specific activity of 2.10 U/mg. As to `COC(=O)/C=C/c1cc(OC)c(O)c(OC)c1` [methyl sinapate], the Relative esterase activity entry in experiment [2] is “no”; in experiment [2] (listed as MSA), “total loss of activity”.
